Legend:
Nitric oxide synthase 1 = Nitric oxide synthase 1 (Homo sapiens, UniProt P29475); test: Inhibition of human nNOS expressed in Sf9 cells assessed as reduction in conversion of [3H]L-arginine to [3H]L-citrulline preincubated for 15 mins by radiometric method
[1] = biological target: Nitric oxide synthase, inducible (Homo sapiens, UniProt P35228); test: Inhibition of human recombinant iNOS expressed in Sf9 cells assessed as reduction in conversion of [3H]L-arginine to [3H]L-citrulline preincubated for 15 mins by radiometric method
[2] = biological target: Voltage-gated inwardly rectifying potassium channel KCNH2 (Homo sapiens, UniProt Q12809); test: Inhibition of human ERG expressed in HEK293 cells at -80 mV holding potential assessed as reduction in tail current amplitude by conventional patch clamp assay; format: cell-based
Nitric oxide synthase 3 = biological target: T1, Nitric oxide synthase 3 (Homo sapiens, UniProt P29474); test: Inhibition of human eNOS expressed in Sf9 cells assessed as reduction in conversion of [3H]L-arginine to [3H]L-citrulline preincubated for 15 mins by radiometric method
T1 sequence (P29474 whole entry): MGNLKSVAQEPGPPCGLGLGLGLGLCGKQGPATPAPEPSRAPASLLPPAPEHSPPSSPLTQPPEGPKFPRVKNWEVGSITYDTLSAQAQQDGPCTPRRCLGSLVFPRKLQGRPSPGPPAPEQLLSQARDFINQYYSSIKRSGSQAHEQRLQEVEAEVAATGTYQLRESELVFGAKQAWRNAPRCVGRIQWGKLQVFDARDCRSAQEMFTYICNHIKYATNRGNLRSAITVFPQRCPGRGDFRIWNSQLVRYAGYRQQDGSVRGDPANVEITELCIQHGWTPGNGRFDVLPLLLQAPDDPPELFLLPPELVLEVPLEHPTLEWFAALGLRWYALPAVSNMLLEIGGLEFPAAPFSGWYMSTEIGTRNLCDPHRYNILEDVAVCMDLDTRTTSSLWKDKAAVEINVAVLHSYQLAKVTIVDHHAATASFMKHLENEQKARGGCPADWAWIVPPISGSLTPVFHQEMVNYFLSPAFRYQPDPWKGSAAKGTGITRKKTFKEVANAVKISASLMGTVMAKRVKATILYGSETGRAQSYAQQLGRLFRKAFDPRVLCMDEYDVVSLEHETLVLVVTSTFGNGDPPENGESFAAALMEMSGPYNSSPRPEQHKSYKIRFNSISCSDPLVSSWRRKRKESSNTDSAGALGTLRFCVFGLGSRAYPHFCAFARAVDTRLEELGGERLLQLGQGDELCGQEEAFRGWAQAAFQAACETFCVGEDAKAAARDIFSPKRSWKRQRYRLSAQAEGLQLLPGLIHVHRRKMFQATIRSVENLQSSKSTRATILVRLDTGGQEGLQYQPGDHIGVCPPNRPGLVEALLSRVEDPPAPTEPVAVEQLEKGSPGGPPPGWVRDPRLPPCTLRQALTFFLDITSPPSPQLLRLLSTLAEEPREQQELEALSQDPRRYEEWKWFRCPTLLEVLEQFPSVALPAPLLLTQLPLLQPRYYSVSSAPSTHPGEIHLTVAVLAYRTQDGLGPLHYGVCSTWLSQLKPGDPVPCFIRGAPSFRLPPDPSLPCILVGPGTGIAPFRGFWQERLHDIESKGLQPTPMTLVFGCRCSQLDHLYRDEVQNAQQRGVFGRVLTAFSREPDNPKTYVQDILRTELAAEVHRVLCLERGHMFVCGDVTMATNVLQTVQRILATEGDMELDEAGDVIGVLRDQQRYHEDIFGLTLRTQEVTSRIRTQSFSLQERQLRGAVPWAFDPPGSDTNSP

Sequence of Voltage-gated inwardly rectifying potassium channel KCNH2 (Q12809 whole entry): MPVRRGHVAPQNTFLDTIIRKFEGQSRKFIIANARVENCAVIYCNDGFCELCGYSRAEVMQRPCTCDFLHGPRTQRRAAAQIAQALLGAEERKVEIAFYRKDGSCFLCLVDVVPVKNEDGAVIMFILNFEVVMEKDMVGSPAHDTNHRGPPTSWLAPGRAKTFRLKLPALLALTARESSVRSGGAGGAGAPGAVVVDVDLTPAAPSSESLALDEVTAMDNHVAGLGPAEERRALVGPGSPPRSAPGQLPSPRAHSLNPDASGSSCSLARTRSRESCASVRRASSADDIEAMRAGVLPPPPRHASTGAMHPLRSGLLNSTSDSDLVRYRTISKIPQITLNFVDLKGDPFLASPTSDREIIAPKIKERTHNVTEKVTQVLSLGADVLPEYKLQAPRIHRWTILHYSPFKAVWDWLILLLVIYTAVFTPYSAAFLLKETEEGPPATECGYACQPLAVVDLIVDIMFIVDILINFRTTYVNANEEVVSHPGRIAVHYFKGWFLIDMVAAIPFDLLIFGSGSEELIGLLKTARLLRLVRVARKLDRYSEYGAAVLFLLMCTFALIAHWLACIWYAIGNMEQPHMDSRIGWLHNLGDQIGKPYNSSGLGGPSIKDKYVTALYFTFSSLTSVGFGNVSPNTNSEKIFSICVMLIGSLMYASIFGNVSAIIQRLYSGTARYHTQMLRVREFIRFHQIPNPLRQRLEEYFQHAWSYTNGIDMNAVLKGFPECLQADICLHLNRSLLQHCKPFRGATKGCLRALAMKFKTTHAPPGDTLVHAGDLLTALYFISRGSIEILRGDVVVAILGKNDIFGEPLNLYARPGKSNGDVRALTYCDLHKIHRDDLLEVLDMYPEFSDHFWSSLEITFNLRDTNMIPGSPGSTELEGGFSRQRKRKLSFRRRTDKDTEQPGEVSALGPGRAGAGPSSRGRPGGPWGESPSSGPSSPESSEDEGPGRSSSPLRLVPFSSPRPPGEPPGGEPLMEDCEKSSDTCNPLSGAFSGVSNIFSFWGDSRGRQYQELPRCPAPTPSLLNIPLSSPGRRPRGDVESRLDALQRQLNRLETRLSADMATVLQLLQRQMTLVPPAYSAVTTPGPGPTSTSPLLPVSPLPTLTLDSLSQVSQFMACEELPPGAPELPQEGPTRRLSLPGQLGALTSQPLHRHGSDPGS
Sequence of Nitric oxide synthase 1 (P29475 whole entry): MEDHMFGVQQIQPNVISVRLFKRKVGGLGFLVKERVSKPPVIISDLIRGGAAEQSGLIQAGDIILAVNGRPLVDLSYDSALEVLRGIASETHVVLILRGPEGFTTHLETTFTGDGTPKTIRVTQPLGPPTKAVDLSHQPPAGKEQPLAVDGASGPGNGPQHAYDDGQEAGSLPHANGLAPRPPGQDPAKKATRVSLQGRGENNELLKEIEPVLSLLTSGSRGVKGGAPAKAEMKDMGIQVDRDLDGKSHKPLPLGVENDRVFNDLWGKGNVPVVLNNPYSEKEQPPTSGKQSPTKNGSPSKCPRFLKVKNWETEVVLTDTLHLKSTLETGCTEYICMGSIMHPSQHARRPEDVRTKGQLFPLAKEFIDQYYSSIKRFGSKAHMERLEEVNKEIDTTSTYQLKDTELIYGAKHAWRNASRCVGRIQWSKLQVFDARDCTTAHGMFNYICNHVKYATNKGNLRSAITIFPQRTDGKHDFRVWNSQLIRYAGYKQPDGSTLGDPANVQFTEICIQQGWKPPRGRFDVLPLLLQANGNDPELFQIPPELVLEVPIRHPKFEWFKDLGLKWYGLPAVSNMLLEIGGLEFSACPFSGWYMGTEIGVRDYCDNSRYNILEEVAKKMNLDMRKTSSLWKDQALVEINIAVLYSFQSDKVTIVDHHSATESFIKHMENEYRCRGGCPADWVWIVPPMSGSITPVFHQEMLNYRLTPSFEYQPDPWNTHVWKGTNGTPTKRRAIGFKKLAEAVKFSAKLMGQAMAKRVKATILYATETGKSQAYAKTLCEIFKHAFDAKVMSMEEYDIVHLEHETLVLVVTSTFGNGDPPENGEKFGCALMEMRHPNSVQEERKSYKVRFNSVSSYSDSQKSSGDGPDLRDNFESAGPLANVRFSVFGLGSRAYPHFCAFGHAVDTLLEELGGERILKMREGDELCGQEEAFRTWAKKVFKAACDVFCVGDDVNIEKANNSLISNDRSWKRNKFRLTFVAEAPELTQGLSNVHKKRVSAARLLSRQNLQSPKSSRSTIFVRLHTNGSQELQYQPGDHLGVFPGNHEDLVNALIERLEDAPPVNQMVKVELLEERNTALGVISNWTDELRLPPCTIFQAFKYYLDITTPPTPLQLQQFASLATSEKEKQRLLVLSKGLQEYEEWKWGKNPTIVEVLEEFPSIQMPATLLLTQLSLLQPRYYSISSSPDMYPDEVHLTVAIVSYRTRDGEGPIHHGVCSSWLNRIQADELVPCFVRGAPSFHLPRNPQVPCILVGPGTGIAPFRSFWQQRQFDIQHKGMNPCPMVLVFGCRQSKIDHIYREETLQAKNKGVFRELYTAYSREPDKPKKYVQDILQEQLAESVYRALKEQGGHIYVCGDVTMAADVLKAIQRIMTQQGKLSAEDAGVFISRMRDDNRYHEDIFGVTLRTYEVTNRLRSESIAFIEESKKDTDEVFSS
Sequence of Nitric oxide synthase, inducible (P35228 whole entry): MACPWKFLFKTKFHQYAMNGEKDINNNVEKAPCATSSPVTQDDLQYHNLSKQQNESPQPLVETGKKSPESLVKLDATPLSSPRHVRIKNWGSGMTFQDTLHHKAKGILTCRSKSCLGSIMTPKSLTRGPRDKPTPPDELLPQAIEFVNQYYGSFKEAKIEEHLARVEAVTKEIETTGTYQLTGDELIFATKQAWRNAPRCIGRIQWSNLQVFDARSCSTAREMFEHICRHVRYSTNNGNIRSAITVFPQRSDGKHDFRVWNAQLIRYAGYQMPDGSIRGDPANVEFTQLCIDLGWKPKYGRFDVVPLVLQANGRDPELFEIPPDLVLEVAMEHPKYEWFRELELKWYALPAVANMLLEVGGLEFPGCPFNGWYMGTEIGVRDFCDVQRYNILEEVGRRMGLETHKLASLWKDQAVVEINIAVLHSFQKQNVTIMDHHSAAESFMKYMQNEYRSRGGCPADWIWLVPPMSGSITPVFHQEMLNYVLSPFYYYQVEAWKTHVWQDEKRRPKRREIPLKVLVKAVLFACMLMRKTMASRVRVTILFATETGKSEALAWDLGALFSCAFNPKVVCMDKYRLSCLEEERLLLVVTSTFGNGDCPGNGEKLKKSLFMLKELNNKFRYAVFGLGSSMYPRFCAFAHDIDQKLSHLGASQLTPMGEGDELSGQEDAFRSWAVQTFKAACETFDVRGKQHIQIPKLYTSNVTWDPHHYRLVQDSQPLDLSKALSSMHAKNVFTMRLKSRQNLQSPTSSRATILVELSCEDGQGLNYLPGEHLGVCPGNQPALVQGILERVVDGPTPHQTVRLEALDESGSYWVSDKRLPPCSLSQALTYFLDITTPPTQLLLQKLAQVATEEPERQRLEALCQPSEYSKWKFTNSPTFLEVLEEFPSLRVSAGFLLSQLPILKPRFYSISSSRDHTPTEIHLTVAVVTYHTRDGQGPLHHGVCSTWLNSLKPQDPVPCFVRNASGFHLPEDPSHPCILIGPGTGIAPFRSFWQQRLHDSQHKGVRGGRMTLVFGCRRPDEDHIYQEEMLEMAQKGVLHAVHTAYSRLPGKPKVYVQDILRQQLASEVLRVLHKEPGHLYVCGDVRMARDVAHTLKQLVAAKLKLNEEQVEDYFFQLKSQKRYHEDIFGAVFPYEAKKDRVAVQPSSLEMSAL

| SMILES | IC50 (Nitric oxide synthase 1) [µM] | IC50 [1] [µM] | IC50 (Nitric oxide synthase 3) [µM] | IC50 [2] [µM] |
| --- | --- | --- | --- | --- |
| CN(CCO)CCN1CCCc2cc(NC(=N)c3cccs3)ccc21 | 0.133 | > 100 |  |  |
| N=C(Nc1ccc2c(c1)CCCN2CCCNCCO)c1cccs1 | 0.169 | > 100 | 39.2 | > 30 |
| N=C(Nc1ccc2c(c1)CCCN2C1CCNC1)c1cccs1 (racemic) |  |  |  | > 30 |

Second part, led by results:

| IC50 (Nitric oxide synthase 1) [µM] | IC50 [1] [µM] | IC50 (Nitric oxide synthase 3) [µM] | SMILES | IC50 [2] [µM] |
| --- | --- | --- | --- | --- |
| 0.176 |  |  | CNCCN1CCCc2cc(NC(=N)c3cccs3)ccc21 |  |
| 0.115 | 73 | 32.9 | N=C(Nc1ccc2c(c1)CCCN2CCNCCO)c1cccs1 | > 30 |
| 0.139 | > 100 | 46.5 | CCNCCN1CCCc2cc(NC(=N)c3cccs3)ccc21 | > 30 |

Reference: ChEMBL document CHEMBL2163286, “1,2,3,4-tetrahydroquinoline-based selective human neuronal nitric oxide synthase (nNOS) inhibitors: lead optimization studies resulting in the identification of N-(1-(2-(methylamino)ethyl)-1,2,3,4-tetrahydroquinolin-6-yl)thiophene-2-carboximidamide as a preclinical development candidate” (J Med Chem, 2012)
